Test results published in patent publication US20110165092A1, “COSMETIC AND/OR DERMATOLOGICAL COMPOSITION” (Universite de la Mediterranee, Aix-Marseille II, priority 2008, published 2011).

What was measured:
progeria patient cells = experiment: Immunocytochemistry, nuclear morphology of progeria patient cells; format: cell-based, human; conditions: abnormal nuclei 48 hours after start, FIG. 10d
Excerpt: The dermal fibroblasts of a control subject (GM00038) and of patients afflicted with progeria and carriers of the G608G mutation (AG11498 and AG01972) were obtained from the Coriell Cell Repository. The HeLa cells came from the American Type Culture Collection. The cells were cultivated in DMEM (Gibco) supplemented with 10% FBS (Gibco) and 1% antibiotic-antimycotic (Gibco). The fibroblasts came from 12-day old mice tails (Varela et al., 2005). The concentration and the length of the treatment with the statin and the aminobiphosphonate are indicated in the legend to the figures. […] The percentage of abnormal nuclei was measured 48 hours after the start of the treatment. […]
The dilution of primary antibodies was 1:100 for the polyclonal goat anti-prelamin A antibody Sc-6214, Santa Cruz Biotechnologies), 1:40 for the anti-lamin A/C antibody (4A7 supplied by G. Morris), 1:200 for the anti-calreticulin rabbit antibody (Stressgen) and 1:100 for the anti-lamin B1 antibody (Abcam). […] Digital images were recorded with a Leica DMR microscope equipped with a CoolSnap camera or with a Leica TCS SP5 confocal microscope. […] More than 100 nuclei were analysed in control fibroblasts for each of the treatments. The number of cell nuclei of patients afflicted with progeria which was analysed was 250 (passage 8), 198 (passage 13) and 150 (passage 20). […]

control fibroblasts = experiment: Nuclear morphology of control mice cells in culture; format: cell-based, mouse; conditions: FIG. 12b
Excerpt: (§1) The dermal fibroblasts of a control subject (GM00038) and of patients afflicted with progeria and carriers of the G608G mutation (AG11498 and AG01972) were obtained from the Coriell Cell Repository. The HeLa cells came from the American Type Culture Collection. The cells were cultivated in DMEM (Gibco) supplemented with 10% FBS (Gibco) and 1% antibiotic-antimycotic (Gibco). The fibroblasts came from 12-day old mice tails (Varela et al., 2005). The concentration and the length of the treatment with the statin and the aminobiphosphonate are indicated in the legend to the figures. During the combined treatment with statin+aminobiphosphonate in the presence of farnesol and/or geranylgeraniol, […] were added to the culture medium with increasing concentrations of farnesol and/or geranylgeraniol. The percentage of abnormal nuclei was measured 48 hours after the start of the treatment.
(§2) Quantification of the effect of pravastatin (1 μM) and zoledronate (1 μM) combined or uncombined on the nuclear morphology of Zmpste24^−/− mice (a) and control mice (b) cells in culture, in the presence of farnesol, geranylgeraniol or both molecules.

Zmpste24−/− cells = experiment: Nuclear morphology of Zmpste24−/− mice cells in culture; format: cell-based, mouse; conditions: pravastatin 1 μM and zoledronate 1 μM, alone or in combination, FIG. 12a
Excerpt: as §1, §2

Zmpste24−/− mice = experiment: Progeroid phenotype of Zmpste24−/− mice (Example 9); format: in vivo, mouse; conditions: daily treatment, FIG. 15
Description: Pravastatin (100 mg/kg/day) and zoledronate (100 mg/kg/day) diluted in PBS were administered to the mice every day.
The difference between the various groups of treated or untreated mice and cells was analysed using the t-test. The calculations were made with the Microsoft Excel program. The data was expressed as a mean±standard error of the mean (SEM).

healthy cells = experiment: Immunohistochemistry dose- and time-response on healthy control cells; format: cell-based, human; conditions: 100 μM pravastatin for 12 hours, 20 μM zoledronate for 6 hours, FIG. 3; for rate of prelamin A produced in treated healthy cells: in combination or singly
Description: Labtech style culture wells (Nunc, Ref. 177399) are seeded, at the rate of 5×10^4 cells per well.
The complete culture medium is supplemented with the treatment or treatments (statin, NBP, both), and the cells are cultivated for the ad hoc time.
The cells are fixed in a 4% paraformaldehyde solution (in PBS) for 10 minutes at ambient temperature.
The primary antibody is diluted to 1/100th in 50 μl of incubating solution and placed in contact with the cells for 1 hour at ambient temperature in a moisture chamber.
The primary antibodies used are of 2 types: • Anti-lamin A/C mouse (N-terminal side), clone 4A7, donation from G. Morris (Oswestry, UK) • Anti-prelamin A goat (15 aa C-terminal end), product SC6214, Santa Cruz Biotechnology, Inc. • 3 rinsings of 15 min each are carried out in 50 μl of 1× PBS.
The cells are immersed in a drop of VectaShield (Vector), covered with a cover glass and observed under a fluorescence microscope (Leica DMR, Leica Microsystems), equipped with a coolSNAP camera system (Princeton).
Dose-response and time-response curves made it possible to determine maximum effectiveness by measuring 2 parameters on healthy control cells, on the one hand, and then on HGPS patient cells.

Row | Structure (SMILES) | influence on the effect of the pravastatin+zoledronate treatment on nuclear morphology (progeria patient cells) | effect on nuclear morphology of control fibroblasts (control fibroblasts) | influence on the effect of the pravastatin+zoledronate treatment on nuclear morphology (Zmpste24−/− cells) | lifespan of the Zmpste24−/− mice, each drug separately (Zmpste24−/− mice) | rate of prelamin A produced in treated healthy cells (healthy cells) [%] | rate of deformed nuclei (a sign of toxicity in healthy cells) (healthy cells)
1 | CC(C)=CCCC(C)=CCCC(C)=CCO [farnesol] | abolishes the effect of the pravastatin+zoledronate treatment | Neither farnesol nor geranylgeraniol produces any effect on control fibroblasts | abolish the effect of the pravastatin+zoledronate treatment on the nuclear morphology |  |  | 
2 | CC(C)=CCC/C(C)=C/CC/C(C)=C/CC/C(C)=C/CO [geranylgeraniol] | also blocks the effect of the treatment | Neither farnesol nor geranylgeraniol produces any effect on control fibroblasts | abolish the effect of the pravastatin+zoledronate treatment on the nuclear morphology |  |  | 
3 | O=P(O)(O)C(O)(Cn1ccnc1)P(=O)(O)O [zoledronate, (1-hydroxy-2-imidazol-1-yl-1-phosphono-ethyl)phosphonic acid] |  |  |  | does not improve the lifespan | 15 | 
4 | CC[C@H](C)C(=O)O[C@H]1C[C@H](O)C=C2C=C[C@H](C)[C@H](CC[C@@H](O)C[C@@H](O)CC(=O)O)[C@H]21 [pravastatin] |  |  |  |  | 25 | approximately 12%
